Data as given in patent publication US20030143713A1, “Novel glycosidase inhibitors and their pharmacological uses, in particular for treating diabetes” (priority 1999, published 2003).

Biological target: T1, isoenzyme 1 of barley α-amylase (AMY1) (Hordeum vulgare, UniProt P00693)
T1 construct: made in house; host or cells: Pichia pastoris
Assay: X-ray crystal structure of the AMY1/spermidine complex (cocrystallisation with spermidine, then soaking in acarbose)
Type: binding
Experimental: The 9 C-terminal residues of recombinant isoenzyme 1 of barley α-amylase (AMY1) were cleaved in order to obtain a C-terminal end of the same length as that of isoenzyme 2 (AMY2). The protein was then over-expressed in Pischia pastoris, purified and concentrated.
The protein preparation used for crystallisation has a concentration of 5.1 mg/ml and is in a solution of 10 mM MES (2-[N]-Morpholino ethane sulphonic acid), 100 mM CaCl2, 0.02% NaN3, pH 6.7.
The crystals were obtained by cocrystallisation thanks to the vapour diffusion principle using the hanging droplet technique. To do this, 2.5 μl of polyethylene glycol 8000 at 21% as a precipitating agent and 0.5 μl of a 0.1M solution of spermidine as a crystallisation additive were added to 2 μl of the protein solution described previously. This droplet was equilibrated at 19° C. against a reservoir containing 500 μl of polyethylene glycol 8000 at 21%.
The crystals were then immersed for 20 hours in a polyethylene glycol 8000 solution at 21% containing 10 mM of acarbose (a pseudo-tetrasaccharide).
Collection of the diffraction data was carried out using an X-ray generator (CuKα radiation—wavelength 1.5418 Å) with a rotating anode (Nonius 581) operating at 40 kV and 90 mA (i.e. 3.6 kW) with a graphite monochromator coupled to a two-dimensional detector of Image Plate type (MarResearch 345) of 34.5 cm in diameter.
A set of 180 diffraction exposures (each corresponding to 1° of oscillation of the crystal) was collected at 15° C., the crystal being capillary mounted and positioned at 120 mm from the detector, with an exposure time of the crystal to the X-rays of 500s per exposure. The highest resolution of this set of data is 2.44 Å.
We then determined the space group as being a P212121. The asymmetrical unit is composed of a molecule of the AMY1/spermidine complex, which corresponds to a volume of solvent in the lattice of 53%.
Subsequent processing of the data was carried out using the CCP4 suite of programs (CCP4, 1994).
The molecular replacement method was used thanks to the AmoRe software (Navaza, 1994) using the structure of isoenzyme 2 of barley α-amylase (AMY2-accession code PDB: 1AMY) (Kadziola et al., 1994 and Kadziola et al., 1998) as a guide model because of the significant sequence homology (80%) between this initial model and our protein of interest (AMY1). Refinement phases using molecular dynamic techniques (simulated annealing—Brünger et al., 1990) were carried out with CNS software version 0.9a (Brünger et al., 1998) alternating with model manipulations. […] In order to do this, 2Fo-Fc and Fo-Fc electronic density maps were calculated. […]

[1] = experimental AMY1/spermidine complex

T1 sequence (P00693 25-429 limits assumed): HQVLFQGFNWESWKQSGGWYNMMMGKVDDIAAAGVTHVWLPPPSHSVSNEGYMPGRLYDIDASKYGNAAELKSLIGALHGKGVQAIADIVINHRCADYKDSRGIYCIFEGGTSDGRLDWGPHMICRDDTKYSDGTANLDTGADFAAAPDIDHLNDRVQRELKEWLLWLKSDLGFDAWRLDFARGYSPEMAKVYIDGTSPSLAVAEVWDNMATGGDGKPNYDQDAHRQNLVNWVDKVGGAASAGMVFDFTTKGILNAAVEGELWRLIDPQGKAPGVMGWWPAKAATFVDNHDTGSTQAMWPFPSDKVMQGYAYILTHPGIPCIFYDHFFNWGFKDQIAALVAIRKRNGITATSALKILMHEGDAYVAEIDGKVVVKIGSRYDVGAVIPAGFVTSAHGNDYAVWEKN

SMILES: NCCCCNCCCN [spermidine]
- Direct hydrogen bonds with a residue [1]: 5
- Direct hydrogen bonds with a water molecule [1]: 4
- total of H bonds stabilising the complex (experimental AMY1/spermidine structure): 9
- affinity for the enzyme compared with acarbose type inhibitors (in the presence of the two types of inhibitors (spermidine and acarbose)): significantly greater affinity for the enzyme in comparison to the acarbose type inhibitors
